Assays:
[1] = tested on: Pseudomonas exotoxin A (PEA) in HEK293 cells; experiment: Protection of HEK293 cells from death caused by Pseudomonas exotoxin A (WST); format: cell-based, human
Description: Pseudomonas exotoxin A (PEA) must be cleaved by furin at the cell surface to gain entry into a cell, which typically causes cell death. […] We inferred that the D6R blocked the cleavage of PEA by furin, thus preventing its activation.

HIV = experiment: Formation of syncytia by HIV in vitro in MT4 T cells; format: cell-based; settings: micromolar concentrations, MT4 line of T cells, preliminary data (not shown)
Description: The administration of polyarginines and other polybasic peptides in accordance with the present invention may be used to combat bacterial and viral infections, and to inhibit the growth of certain cancers. Preliminary data, for example, show activity against Pseudomonas exotoxin, and against HIV.

N=C(N)NCCC[C@@H](NC(=O)[C@H](N)CCCN=C(N)N)C(=O)N[C@H](CCCNC(=N)N)C(=O)N[C@H](CCCNC(=N)N)C(=O)N[C@H](CCCNC(=N)N)C(=O)N[C@H](CCCN=C(N)N)C(=O)O [Hexa-D-arginine]
amount of WST (absorbance) ([1]; HEK293, 1 μM D6R + 10 ng/mL PEA, 51 hours): 0.52 ± 0.04
amount of WST (absorbance) ([1]; HEK293, 1 μM D6R + 10 ng/mL PEA, 76 hours): 0.85 ± 0.02
amount of WST (absorbance) ([1]; HEK293, 1 μM D6R + 10 ng/mL PEA, 86 hours): 0.83 ± 0.02
amount of WST (absorbance) ([1]; HEK293, 1 μM D6R + 10 ng/mL PEA, 96 hours): 0.56 ± 0.04
amount of WST (absorbance) ([1]; HEK293, 10 μM D6R + 10 ng/mL PEA, 51 hours): 0.54 ± 0.07
amount of WST (absorbance) ([1]; HEK293, 10 μM D6R + 10 ng/mL PEA, 76 hours): 0.73 ± 0.05
amount of WST (absorbance) ([1]; HEK293, 10 μM D6R + 10 ng/mL PEA, 86 hours): 0.71 ± 0.02
amount of WST (absorbance) ([1]; HEK293, 10 μM D6R + 10 ng/mL PEA, 96 hours): 0.67 ± 0.01
amount of WST (absorbance) ([1]; HEK293, 100 μM D6R + 10 ng/mL PEA, 51 hours): 0.51 ± 0.04
amount of WST (absorbance) ([1]; HEK293, 100 μM D6R + 10 ng/mL PEA, 76 hours): 0.78 ± 0.03
amount of WST (absorbance) ([1]; HEK293, 100 μM D6R + 10 ng/mL PEA, 86 hours): 0.61 ± 0.06
amount of WST (absorbance) ([1]; HEK293, 100 μM D6R + 10 ng/mL PEA, 96 hours): 0.55 ± 0.02
effect on cell death caused by PEA ([1]; HEK293 cells, 10 ng/mL PEA, 1 μM final concentration): reduced the cell death caused by PEA
protection of cells from killing by exotoxin ([1]; preliminary data, summary statement): able to protect cells from killing
formation of syncytia by HIV (HIV): inhibited the formation of syncytia

— US7569547B2, “Inhibiting furin with polybasic peptides” (Board of Supervisors of Louisiana State University and …, priority 2001, dated 2009)
